Peptide text beside a SMILES is read from it.
System: Human dermal fibroblast cells
Experiment: Hyaluronic acid (HA) production in human dermal fibroblast cells, HA ELISA of the media
Type: cell-based
Conditions: percent change of HA production relative to vehicle control, peptide concentration 0.001%, 48h treatment in DMEM media without FBS, secreted HA in media
Method: Human dermal fibroblast cells were grown in a 96 well plate in DMEM media (available from Corning, N.Y.) supplemented with 10% Fetal Bovine Serum (FBS) and L-glutamine (0.07×10^5 cells/plate). After reaching about 75% confluence, cells were transferred into DMEM media without FBS and incubated for 4-6 hours. Next, cells were treated with peptide of Formula I at 0.00001%, 0.0001%, 0.001% final concentration in DMEM media without FBS for 48h. After treatment the media were collected, and cell viability was measured using MTT. Amount of secreted Hyaluronic Acid (HA) was tested in the media using HA Elisa kit (available from Corgenix, Broomfield, Colo.).
Results are summarized in Table 1 below as percent change of HA production relative to vehicle control: […]

CC(N)C(=O)NC(CCC(=O)O)C(=O)NC(CS)C(=O)NC(CCCCN)C(=O)O (stereo not drawn) [AECK (SEQ ID NO: 1), Ala-Glu-Cys-Lys] (H-AECK-OH; configuration not given here)
Increase in HA Production: +90-150%
Increase in HA Production (listed as peptide of Formula I): 90-150%

— patent US20170281507A1, “Peptides and Their Use in the Treatment of Skin” (AVON PRODUCTS, INC., priority 2014, published 2017)
